Consider 2 molecules from US4109008A, “Hydrazine derivatives useful as anti-hypertensives” (Hexachimie, priority 1976, dated 1978).

The test system of the assay is male rats exhibiting a spontaneous genetically transmissible hypertension. In words: Systolic arterial pressure and rate of heartbeat in spontaneously hypertensive rats after intraperitoneal administration. The note with it: Rattus norvegicus, ip, 0.5 h, 40 mg/kg given intraperitoneally, T + 30 mins, read-out: percentage variation and mean deviation of the systolic arterial pressure, T + 30 mins. Format: in vivo. How it is done:
The arterial pressure is measured by a "Narco Bio System" sphygmomanometer. A sleeve is placed over the base of the tail and a detector records the pulse downstream from the sleeve. The sleeve is then inflated until the pulse is stopped, thus indicating the systolic pressure. The rate of heartbeat is also recorded. The products to be studied are converted to a suspension by means of "Tween 80" and administered intraperitoneally in a volume of 1 cm^3 per 100 grams of body weight. The measurements are repeated at regular intervals.

As to `C#CCOc1ccccc1C=NNC(=N)N` [Example 1, N-[o-(Prop-2-Y-noxy)-Benzylidene]-N'-Amidino-Hydrazine], the change in vivo at 40 mg/kg is -52 ± 3.4%.
In the case of `Cn1c(=O)n(C)c2cc(C=NNC3=NCCN3)ccc21` [Example 12, N-(1,3-Dimethyl-2-Oxo-5-Benzimidazolylidene)-N'-Imidazolino-Hydrazine] it was -39 ± 7.4%.
